Reference: patent US8258138B2, “Potassium channel blockers” (Xention Limited, priority 2008, dated 2012)

What follows are compounds tested against T1, human Kv1.3 (Homo sapiens, UniProt P22001) (assay: Kv1.3 Autopatch electrophysiology (whole cell patch-clamp, inhibition of charge movement)). Settings: compound at 1 μM; cells stably transfected with human Kv1.3; room temperature; total charge during step to +30 mV relative to control.
T1 construct: expressed in transfected cells; host or cells: stably transfected cells grown in medium for CHO cells
T1 sequence (P22001 whole entry): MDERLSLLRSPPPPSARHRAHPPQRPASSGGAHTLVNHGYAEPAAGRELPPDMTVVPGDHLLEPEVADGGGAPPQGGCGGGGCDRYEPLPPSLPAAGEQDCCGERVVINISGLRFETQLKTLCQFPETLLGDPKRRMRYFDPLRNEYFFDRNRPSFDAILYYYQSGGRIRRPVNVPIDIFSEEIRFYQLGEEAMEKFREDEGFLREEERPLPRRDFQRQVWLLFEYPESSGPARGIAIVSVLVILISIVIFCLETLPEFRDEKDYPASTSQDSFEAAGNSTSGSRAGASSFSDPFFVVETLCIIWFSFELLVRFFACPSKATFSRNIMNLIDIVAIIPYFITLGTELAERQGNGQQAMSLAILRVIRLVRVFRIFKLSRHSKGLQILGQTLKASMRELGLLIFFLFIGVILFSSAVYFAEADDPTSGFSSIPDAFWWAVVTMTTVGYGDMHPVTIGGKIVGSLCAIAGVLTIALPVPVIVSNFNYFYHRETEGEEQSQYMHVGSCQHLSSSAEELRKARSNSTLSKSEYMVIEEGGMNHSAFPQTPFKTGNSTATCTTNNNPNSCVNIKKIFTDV
Format: cell-based
Description: Kv1.3 Autopatch Electrophysiology Method
Compounds were tested on these cells using the AutoPatch technology in whole cell mode.
The external bathing solution contained (in mM): 150 NaCl, 10 KCl, 1 MgCl2, 3 CaCl2, 10 HEPES, pH 7.4 with NaOH. Patch pipettes were filled with an electrode solution of composition (in mM): 100 K-Gluconate, 20 KCl, 1 MgCl2, 1 CaCl2, 10 HEPES, 11 EGTA, 5 ATP-Na2, 2 Glutathione pH 7.2 with KOH.
Compounds were dissolved in DMSO (100%) and made up in the external bather at a concentration of 1 μM immediately prior to use. All experiments were conducted at room temperature.
A cell suspension (10 ml), with a density of 6×10^6 cells, was aliquoted into a 15 ml centrifuge tube and stored at 4° C. before use. Prior to use a tube was taken and centrifuged at 1000 rpm for 4 mins at room temperature. The supernatant was then discarded, leaving a cell pellet at the bottom of the tube. The pellet was then resuspended using 1 ml of cold (4° C.), filtered (0.22 μm), 0.05% BSA/bather solution (0.05 g BSA/100 ml bather). The bottom of the tube was manually agitated followed by gentle tituration. The cell suspension was then placed in the AutoPatch™ temperature controlled cell-hotel at 14° C. and regularly titurated.
A length of Teflon capillary tubing was dipped into the cell suspension solution, and a column of fluid was taken up by negative pressure. The column of fluid was in electrically connectivity with a Ag/AgCl reference electrode. Borosilicate glass patch pipettes (from 1.5 mm OD, thin-walled filamented, GC150-TF capillary glass, Harvard) were pulled using a DMZ pipette puller (Zeitz Instruments), and were back-filled using the internal pipette solution, being careful that no bubbles remained at the tip or in the body of the pipette. Patch pipettes typically had resistances of 2.5-3.5 MΩ. Once filled, the pipette tip and a proportion of the shaft (˜15 mm) were dipped into Sigmacote (Sigma). The recording pipettes were placed in a multiwell array and mounted on the AutoPatch™ machine. Automated patch-clamping and drug-application was initiated by the operator, but thereafter AutoPatch.exe continued the experiment providing that pre-set conditions and criteria were satisfied.
Whole cell patch-clamp recordings were made using the AutoPatch™ rig, which incorporated an EPC9 or EPC10 amplifier (HEKA, Germany) under control of Pulse software (v8.54 or v8.76, HEKA, Germany), a cell applicator, automated drug application system (DAS), valve controller (VF1) and a suction device all at room temperature. This equipment was completely under the control of AutoPatch.exe and operator intervention was only made when there was a requirement to refill the bather reservoirs or to prevent the loss of a cell due to a technical error.
Cells were continuously perfused with external solution at a flow rate of ˜2 ml/minute.
Electrophysiology voltage-step protocols and analysis of data was performed as follows. Data were sampled at 5 kHz, and filtered with a −3 dB bandwidth of 2.5 kHz. Cells were held at a voltage of −80 mV. Currents were evoked by a voltage step to +30 mV for 500 ms in duration applied every 15 s. Online analysis of the hKv1.3 current during the application of compounds was performed by the Pulse (v8.54 or v8.76, HEKA, Germany), Excel (Microsoft, USA) and AutoPatch™ software, with the total charge measured during the whole of voltage step. Inhibition of charge movement in the presence of drug was calculated relative to control.

| Compound | hKv1.3 % inh. |
| --- | --- |
| 1-Methyl-1H-imidazole-4-sulfonic acid benzyl-[4-(3-phenyl-piperidine-1-carbonyl)-phenyl]-amide [Example 64] | 86% |
| CN(C)S(=O)(=O)N(Cc1ccccc1)c1ccc(C(=O)N2CCN(c3ccccc3C#N)CC2)cc1 [Example 5, N-Benzyl-N′N′-dimethyl-N-{4-[4-(2-cyano-phenyl)-piperazine-1-carbonyl]-phenyl}-sulfamide] | 42% |
| CC(C)c1noc(C2CCCN(C(=O)c3ccc(N(Cc4ccccc4)S(=O)(=O)N(C)C)cc3)C2)n1 (centres unmarked) [Example 69, N-Benzyl-N′N′-dimethyl-N-{4-[3-(3-isopropyl-[1,2,4]oxadiazol-5-yl)-piperidine-1-carbonyl]-phenyl}-sulfamide] | 31% |
| CN(C)S(=O)(=O)N(Cc1ccccc1)c1ccc(C(=O)N2CCC(OCc3ccccc3)C2)cc1 (centres unmarked) [Example 70, N-Benzyl-N′N′-dimethyl-N-[4-(3-benzyloxy-pyrrolidine-1-carbonyl)-phenyl]-sulfamide] | 26% |
| CN(C)S(=O)(=O)N(Cc1ccccc1)c1ccc(C(=O)N2CCC(O)(c3ccccc3)CC2)cc1 [Example 71, N-Benzyl-N′N′-dimethyl-N-[4-(4-hydroxy-4-phenyl-piperidine-1-carbonyl)-phenyl]-sulfamide] | 27% |
| CN(C)S(=O)(=O)N(Cc1ccccc1)c1ccc(C(=O)N2CCC(Oc3ccccc3)CC2)cc1 [Example 72, N-Benzyl-N′N′-dimethyl-N-[4-(4-phenoxy-piperidine-1-carbonyl)-phenyl]-sulfamide] | 68% |

Same assay, conditions: compound at 1 μM; cells stably transfected with human Kv1.3; room temperature; total charge during step to +30 mV relative to control; read-out: hKv1.3 % inh.

| Compound | inhibition at 1 µM |
| --- | --- |
| N#Cc1ccc(CN(c2ccc(C(=O)N3CCN(c4ccccc4)CC3)cc2)S(=O)(=O)c2ccccc2)cc1 [Example 2, N-(4-Cyano-benzyl)-N-[4-(4-phenyl-piperazine-1-carbonyl)-phenyl]-benzenesulfonamide] | 76% |
| O=C(c1ccc(N(Cc2ccccc2)S(=O)(=O)c2ccccc2)cc1)N1CCCCC1 [Example 3, N-Benzyl-N-[4-(piperidine-1-carbonyl)-phenyl]-benzenesulfonamide] | 94% |
| Cc1ccc(C2CCCN(C(=O)c3ccc(N(Cc4ccc(Cl)cc4)S(=O)(=O)c4ccccc4)cc3)C2)cc1 (centres unmarked) [Example 4, N-(4-Chloro-benzyl)-N-[4-(3-p-tolyl-piperidine-1-carbonyl)-phenyl]-benzenesulfonamide] | 67% |
| CN(C)S(=O)(=O)N(Cc1ccccc1)c1ccc(C(=O)N2CCOC(c3ccccc3)C2)cc1 (centres unmarked) [Example 6, N-Benzyl-N-[4-(2-phenyl-morpholine-4-carbonyl)-phenyl]-N′,N′-dimethylsulfamide] | 60% |
| CN1CCN(C(=O)c2ccc(N(Cc3ccccc3)S(=O)(=O)c3cn(C)cn3)cc2)CC1 [Example 7, 1-Methyl-1H-imidazole-4-sulfonic acid benzyl-[4-(4-methyl-piperazine-1-carbonyl)-phenyl]-amide] | 38% |
| O=C(c1ccc(N(Cc2ccccc2)S(=O)(=O)c2ccc3ccccc3c2)cc1)N1CCN(c2ccccc2)CC1 [Example 13, Naphthalene-2-sulfonic acid benzyl-[4-(4-phenyl-piperazine-1-carbonyl)-phenyl]-amide] | 51% |
| N#Cc1ccc(S(=O)(=O)N(Cc2ccccc2)c2ccc(C(=O)N3CCN(c4ccccc4)CC3)cc2)cc1 [Example 22, N-Benzyl-4-cyano-N-[4-(4-phenyl-piperazine-1-carbonyl)-phenyl]-benzenesulfonamide] | 39% |
| Cc1cccc(S(=O)(=O)N(Cc2ccccc2)c2ccc(C(=O)N3CCN(c4ccccc4)CC3)cc2)c1 [Example 27, N-Benzyl-3-methyl-N-[4-(4-phenyl-piperazine-1-carbonyl)-phenyl]-benzenesulfonamide] | 55% |
| Cc1ccccc1CN(c1ccc(C(=O)N2CCN(c3ccccc3)CC2)cc1)S(=O)(=O)c1ccccc1 [Example 34, N-(2-Methyl-benzyl)-N-[4-(4-phenyl-piperazine-1-carbonyl)-phenyl]-benzenesulfonamide] | 85% |
| O=C(c1ccc(N(Cc2ccc(C(F)(F)F)cc2)S(=O)(=O)c2ccccc2)cc1)N1CCN(c2ccccc2)CC1 [Example 36, N-[4-(4-Phenyl-piperazine-1-carbonyl)-phenyl]-N-(4-trifluoromethyl-benzyl)-benzenesulfonamide] | 50% |
| O=C(c1ccc(N(Cc2cccc(OC(F)(F)F)c2)S(=O)(=O)c2ccccc2)cc1)N1CCN(c2ccccc2)CC1 [Example 37, N-[4-(4-Phenyl-piperazine-1-carbonyl)-phenyl]-N-(3-trifluoromethoxy-benzyl)-benzenesulfonamide] | 46% |
| N#Cc1ccccc1CN(c1ccc(C(=O)N2CCN(c3ccccc3)CC2)cc1)S(=O)(=O)c1ccccc1 [Example 38, N-(2-Cyano-benzyl)-N-[4-(4-phenyl-piperazine-1-carbonyl)-phenyl]-benzenesulfonamide] | 50% |
| O=C(c1ccc(N(Cc2ccccc2)S(=O)(=O)c2ccco2)cc1)N1CCN(c2ccccc2)CC1 [Example 41, Furan-2-sulfonic acid benzyl-[4-(4-phenyl-piperazine-1-carbonyl)-phenyl]-amide] | 81% |
| COc1cccc(CN(c2ccc(C(=O)N3CCN(c4ccccc4)CC3)cc2)S(=O)(=O)c2cn(C)cn2)c1 [Example 45, 1-Methyl-1H-imidazole-4-sulfonic acid (3-methoxy-benzyl)-[4-(4-phenyl-piperazine-1-carbonyl)-phenyl]-amide] | 54% |
| Cc1ncc(S(=O)(=O)N(Cc2ccccc2)c2ccc(C(=O)N3CCN(c4ccccc4)CC3)cc2)n1C [Example 47, 2,3-Dimethyl-3H-imidazole-4-sulfonic acid benzyl-[4-(4-phenyl-piperazine-1-carbonyl)-phenyl]-amide] | 50% |
| CC1CN(C(=O)c2ccc(N(Cc3ccccc3)S(=O)(=O)c3ccccc3)cc2)CC(C)O1 (centres unmarked) [Example 56, N-Benzyl-N-[4-(2,6-dimethyl-morpholine-4-carbonyl)-phenyl]-benzenesulfonamide] | 42% |
| O=C(c1ccc(N(Cc2ccccc2)S(=O)(=O)c2ccccc2)cc1)N1CCC(O)(c2ccccc2)CC1 [Example 58, N-Benzyl-N-[4-(4-hydroxy-4-phenyl-piperidine-1-carbonyl)-phenyl]benzenesulfonamide] | 81% |
| Cc1noc(C2CCCN(C(=O)c3ccc(N(Cc4ccc(Cl)cc4)S(=O)(=O)c4cn(C)cn4)cc3)C2)n1 (centres unmarked) [Example 60, 1-Methyl-1H-imidazole-4-sulfonic acid (4-chloro-benzyl)-{4-[3-(3-methyl-[1,2,4]oxadiazol-5-yl)-piperidine-1-carbonyl]-phenyl}-amide] | 83% |
| Cc1noc(C2CCCN(C(=O)c3ccc(N(Cc4ccccc4)S(=O)(=O)c4cn(C)cn4)cc3)C2)n1 (centres unmarked) [Example 65, 1-Methyl-1H-imidazole-4-sulfonic acid benzyl-{4-[3-(3-methyl-[1,2,4]oxadiazol-5-yl)-piperidine-1-carbonyl]-phenyl}-amide] | 57% |
| Cn1cnc(S(=O)(=O)N(Cc2ccc(Cl)cc2)c2ccc(C(=O)N3CCCCC3)cc2)c1 [Example 67, 1-Methyl-1H-imidazole-4-sulfonic acid (4-chloro-benzyl)-[4-(piperidine-1-carbonyl)-phenyl]-amide] | 43% |
